Test results taken from patent US20250122207A1, “AP2 ASSOCIATED KINASE 1 INHIBITORS AND USES THEREOF” (Satellos Bioscience Inc., priority 2023, published 2025).
Read-outs that look alike come from different tables or passages of the source.

Experiments:
[1] = molecular target: T1, BIKE (amino acids S38-E345) (K320A, K321A) (Homo sapiens, UniProt Q9NSY1, K320A/K321A); test: BIKE pSENs assay; assay type: biochemical
T1 construct: against BIKE (amino acids S38-E345) (K320A, K321A); 6His (N, cleaved yes)
Procedure: (§1) The recombinant proteins were independently expressed in Escherichia coli BL21(DE3) cells cultured in Luria-Bertani (LB) medium until OD600 reached 0.6-0.8, then cooled to 15° C. and supplemented with 0.5 mM isopropyl 1-thio-D-galactopyranoside (IPTG) induce protein expression 16 h. Cells were harvested and resuspended in lysis buffer (50 mM HEPES pH 7.5, 500 mM NaCl, 5 mM imidazole, 5% glycerol, 0.5 mM Tris (2-carboxyethyl) phosphine (TCEP), cOmplete Protease Inhibitor Tablet (Roche)) and lysed by microfludics high pressure homogenizer (UH-06, Union-Biotech). Proteins were purified using […] chromatography (His FF column, Bestchrom) and eluted stepwise in binding buffer with 20-300 mM imidazole. Removal of the hexahistidine tag was performed at 4° C. overnight using recombinant TEV protease and reacted with BirA to obtain the corresponding biotinylated-AAK1, BIKE or GAK proteins. Further separated in the reverse Strep column (Strep-Tactin® XT, IBA). The Biotin elution sample was collected containing untagged biotinylated protein was then purified by Ion-exchange chromatography (Mono Q 10/100 GL, Cytiva) and Size-exclusion chromatography (HiLoad 16/600 Superdex 200 pg, Cytiva). The pure protein was stored in a storage buffer 50 mM HEPES (pH 7.5), 300 mM NaCl, 5% glycerol at −80° C. Protein were characterized by SDS-PAGE, LC-MS and aSEC.
BIKE protein was dissolved at 20 nM in 1× enzyme solution (50 mM HEPES pH7.5, 10 mM MgCl2, 1 mM DTT, 1% glycerol, 0.5 mM EGTA, 0.01% Briji35, 0.02% BSA) and 12.5 ul was incubated with 250 nl DMSO or 250 nl compound in DMSO at 25° C. for 15 min. The reaction was started by addition of 12.5 ul of 30 uM AQT0759 (Assayquant, CSKS-AQT0759B) and 40 uM ATP which were diluted in 1× substrate dilution buffer (50 mM HEPES pH7.5, 10 mM MgCl2, 1 mM DTT, 1% glycerol, 0.5 mM EGTA, 0.01% Briji35).

[2] = molecular target: T2, AAK1 (amino acids T27-A365) (Homo sapiens, UniProt Q2M2I8); test: AAK1 pSENs assay; assay type: biochemical; conditions: class symbols; read-out: AAK1 pSENs: EIC50
T2 construct: against AAK1 (amino acids T27-A365); 6His (N, cleaved yes)
Outline: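 Biotinylated, tag-free AAK1 T27-A365 expressed in E. coli was held at 20 nM in enzyme solution (HEPES pH 7.5, 10 mM MgCl2, DTT, EGTA, Brij35, BSA) and preincubated with compound for 15 min at 25 °C. The reaction was started with an equal volume of substrate solution containing 30 uM AQT0759 peptide and 70 uM ATP. IC50 determined.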

[3] = molecular target: AAK1 (Homo sapiens, UniProt Q2M2I8); test: pAP2M1 cell-based assay (in-cell Western); conditions: Hela cells co-transfected with AP2M1 and AAK1, 3 hr treatment; class symbols; read-out: AAK1 In-cell Western: IC50
Text: pAP2M1 Cell-Based Assay (in-Cell Western):
The plate was read on Licor Odyssey CLx imaging system (LICOR) to acquire fluorescence intensity at 700 channel and 800 channel.
Data analysis: Fluorescence intensity at 700 channel served as internal standard and 800 channel were normalized with 700 channel.

[4] = molecular target: T3, GAK (amino acids Q25-N335) (Homo sapiens, UniProt O14976); test: GAK pSENs assay; assay type: biochemical
T3 construct: against GAK (amino acids Q25-N335); 6His (N, cleaved yes)
T3 sequence (O14976 25-335): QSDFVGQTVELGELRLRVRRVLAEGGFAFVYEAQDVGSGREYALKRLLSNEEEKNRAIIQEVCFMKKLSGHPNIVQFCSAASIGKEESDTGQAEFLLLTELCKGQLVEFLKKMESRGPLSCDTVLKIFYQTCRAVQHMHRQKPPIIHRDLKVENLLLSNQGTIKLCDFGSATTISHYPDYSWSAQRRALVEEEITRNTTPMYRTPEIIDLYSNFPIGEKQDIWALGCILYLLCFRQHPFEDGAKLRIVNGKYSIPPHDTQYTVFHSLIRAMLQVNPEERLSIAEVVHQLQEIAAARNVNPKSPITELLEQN
Procedure: as §1
This example describes one illustrative method for determining the IC50 of the compounds of the present invention against GAK (amino acids Q25-N335).

[5] = class symbols, read-out: BIKE pSENs: IC50
[6] = class symbols, read-out: GAK pSENs:IC50

AAK1, sequence (Q2M2I8 whole entry): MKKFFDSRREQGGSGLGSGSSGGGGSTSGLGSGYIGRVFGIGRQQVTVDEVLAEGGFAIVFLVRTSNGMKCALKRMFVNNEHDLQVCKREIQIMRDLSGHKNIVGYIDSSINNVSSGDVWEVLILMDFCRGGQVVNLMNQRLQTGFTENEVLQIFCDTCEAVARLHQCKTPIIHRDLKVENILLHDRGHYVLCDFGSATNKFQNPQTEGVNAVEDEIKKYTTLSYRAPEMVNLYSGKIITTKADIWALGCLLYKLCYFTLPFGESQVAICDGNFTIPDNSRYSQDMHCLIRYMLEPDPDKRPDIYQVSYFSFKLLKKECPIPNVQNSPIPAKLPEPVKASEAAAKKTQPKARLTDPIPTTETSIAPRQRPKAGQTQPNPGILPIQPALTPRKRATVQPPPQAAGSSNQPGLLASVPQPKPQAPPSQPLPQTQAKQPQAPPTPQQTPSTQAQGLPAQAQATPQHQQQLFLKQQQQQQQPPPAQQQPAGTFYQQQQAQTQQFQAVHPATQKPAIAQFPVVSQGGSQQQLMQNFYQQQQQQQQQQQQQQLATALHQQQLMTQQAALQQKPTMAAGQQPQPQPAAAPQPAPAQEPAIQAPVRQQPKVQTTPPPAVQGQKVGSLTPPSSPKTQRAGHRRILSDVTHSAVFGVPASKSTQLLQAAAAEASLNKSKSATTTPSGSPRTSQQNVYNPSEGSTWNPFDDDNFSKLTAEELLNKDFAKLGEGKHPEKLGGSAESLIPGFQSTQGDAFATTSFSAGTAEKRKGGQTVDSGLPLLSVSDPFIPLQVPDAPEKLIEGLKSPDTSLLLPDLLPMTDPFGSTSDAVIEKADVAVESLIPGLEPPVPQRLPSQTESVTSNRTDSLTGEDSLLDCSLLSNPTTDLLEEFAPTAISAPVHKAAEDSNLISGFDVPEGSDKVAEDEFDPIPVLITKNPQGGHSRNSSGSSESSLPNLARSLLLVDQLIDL
T2 sequence (Q2M2I8 27-365): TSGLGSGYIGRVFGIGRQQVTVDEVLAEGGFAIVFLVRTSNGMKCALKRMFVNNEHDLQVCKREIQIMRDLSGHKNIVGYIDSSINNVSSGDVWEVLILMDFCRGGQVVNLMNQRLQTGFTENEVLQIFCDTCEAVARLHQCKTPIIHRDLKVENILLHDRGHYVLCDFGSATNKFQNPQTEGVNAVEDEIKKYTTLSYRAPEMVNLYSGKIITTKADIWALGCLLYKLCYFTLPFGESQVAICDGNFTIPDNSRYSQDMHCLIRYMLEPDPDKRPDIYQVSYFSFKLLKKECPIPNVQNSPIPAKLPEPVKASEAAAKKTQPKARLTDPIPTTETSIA
T1 sequence (Q9NSY1 38-345 K320A/K321A): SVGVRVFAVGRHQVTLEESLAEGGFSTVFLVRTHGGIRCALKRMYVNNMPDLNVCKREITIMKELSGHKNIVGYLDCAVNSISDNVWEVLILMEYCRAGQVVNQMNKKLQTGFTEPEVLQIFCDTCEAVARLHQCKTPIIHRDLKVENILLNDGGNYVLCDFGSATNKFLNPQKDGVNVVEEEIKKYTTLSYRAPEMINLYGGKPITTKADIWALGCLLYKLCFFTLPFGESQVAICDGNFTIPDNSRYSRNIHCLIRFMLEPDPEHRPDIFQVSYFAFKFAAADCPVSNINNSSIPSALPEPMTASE

Compound	IC50 [2] [nM]	IC50 [4, 6] [nM]	IC50 [1, 5] [nM]	IC50 [3] [nM]	IC50 [1] [nM]	IC50 [4] [nM]
CC1(OC(=O)N2CCN(c3ccn4ncc(-c5ccc(C(N)=O)cc5)c4n3)CC2)COC1 [Compound I-3, (3-methyloxetan-3-yl)-4-[3-(4-carbamoylphenyl)pyrazolo[1,5-a]pyrimidin-5-yl]piperazine-1-carboxylate]	1 to 50	501 to 1500	51 to 150	501 to 1500	–	–
CC1(OC(=O)N2CCN(c3ccn4ncc(-c5cccc(C(N)=O)c5)c4n3)CC2)COC1 [Compound I-4, (3-methyloxetan-3-yl)-4-[3-(3-carbamoylphenyl)pyrazolo[1,5-a]pyrimidin-5-yl]piperazine-1-carboxylate]	51 to 150	501 to 1500	501 to 1500	501 to 1500	–	–
COc1ncccc1-c1cnn2ccc(N3CCN(C(=O)OC4CCNC4)CC3)nc12 (stereo not shown) [Compound I-5, Pyrrolidin-3-yl4-[3-(2-methoxy-3-pyridyl)pyrazolo[1,5-a]pyrimidin-5-yl]piperazine-1-carboxylate]	1 to 50	501 to 1500	1 to 50	151 to 500	–	–
COc1ncccc1-c1cnn2ccc(N3CCN(C(=O)OC4(C)CCNC4)CC3)nc12 (stereo not shown) [Compound I-8, (3-Methylpyrrolidin-3-yl)-4-[3-(2-methoxy-3-pyridyl)pyrazolo[1,5-a]pyrimidin-5-yl]piperazine-1-carboxylate]	1 to 50	151 to 500	1 to 50	1 to 50	–	–
C#CC1(OC(=O)N2CCN(c3ccn4ncc(-c5cccnc5OC)c4n3)CC2)CCNC1 (stereo not shown) [Compound I-9, (3-Ethynylpyrrolidin-3-yl) 4-[3-(2-methoxy-3-pyridyl)pyrazolo[1,5-a]pyrimidin-5-yl]piperazine-1-carboxylate]	1 to 50	151 to 500	1 to 50	51 to 150	–	–
CN(CCNc1ccn2ncc(-c3cccnc3OC3CC3)c2n1)C(=O)OC(C)(C)C [Compound I-12, tert-butyl N-[2-[[3-[2-(Cyclopropoxy)-3-pyridyl]pyrazolo[1,5-a]pyrimidin-5-yl]amino]ethyl]-N-methyl-carbamate]	1 to 50	501 to 1500	51 to 150	151 to 500	–	–
CC1(OC(=O)N2CCN(c3ccn4ncc(-c5cccnc5OCC5COC5)c4n3)CC2)COC1 [Compound I-20]	151 to 500	501 to 1500	–	> 1500	–	–
CC(C)Oc1ncccc1-c1cnn2ccc(N3CCN(C(=O)O[C@@]4(C)CCNC4)CC3)nc12 [Compound I-21, [(3S)-3-Methylpyrrolidin-3-yl]4-[3-(2-isopropoxy-3-pyridyl)pyrazolo[1,5-a]pyrimidin-5-yl]piperazine-1-carboxylate]	51 to 150	501 to 1500	–	> 1500	–	–
C[C@@]1(OC(=O)N[C@H]2CCN(c3ccn4ncc(-c5cccnc5OC5CC5)c4n3)C2)CCNC1 [Compound I-57, (R)-3-methylpyrrolidin-3-yl ((S)-1-(3-(2-cyclopropoxypyridin-3-yl)pyrazolo[1,5-a]pyrimidin-5-yl)pyrrolidin-3-yl)carbamate]	51 to 150	501 to 1500	–	> 1500	–	–
O=C(O[C@H]1CO[C@H]2OCC[C@H]21)N1CCN(c2ccn3ncc(-c4cnccn4)c3n2)CC1 [Compound I-66, [(3aS,4R,6aR)-2,3,3a,4,5,6a-hexahydrofuro[2,3-b]furan-4-yl]-4-(3-pyrazin-2-ylpyrazolo[1,5-a]pyrimidin-5-yl)piperazine-1-carboxylate]	151 to 500	501 to 1500	–	501 to 1500	–	–
CN1C[C@@H](OC(=O)N2CCN(c3nc4c(-c5cccnc5OC5CCCC5)cnn4cc3F)CC2)CC1=O [Compound I-121, [(3S)-1-methyl-5-oxo-pyrrolidin-3-yl]-4-[3-[2-(cyclopentoxy)-3-pyridyl]-6-fluoro-pyrazolo[1,5-a]pyrimidin-5-yl]piperazine-1-carboxylate]	51 to 150	–	501 to 1500	> 1500	–	–
COc1ncccc1-c1cnn2ccc(N3CCN(C(=O)OC(C)C)CC3)nc12 [LP-935509]	–	–	–	–	33.3	720

Second part, led by results:

IC50 [2] [nM]	IC50 [4, 6] [nM]	Compound	IC50 [1, 5] [nM]	IC50 [3] [nM]	IC50 [1] [nM]	IC50 [4] [nM]
–	151 to 500	CC1(OC(=O)N2CCN(c3ccn4ncc(-c5cccnc5OC5CC5)c4n3)CC2)CCNC1 (stereo not shown) [Compound I-13-5, (3-Methylpyrrolidin-3-yl) 4-[3-[2-(cyclopropoxy)-3-pyridyl]pyrazolo[1,5-a]pyrimidin-5-yl]piperazine-1-carboxylate]	51 to 150	–	–	–
1 to 50	501 to 1500	C[C@@]1(OC(=O)N2CCN(c3ccn4ncc(-c5cccnc5OC5CC5)c4n3)CC2)CCNC1 [Compound I-14, [(3R)-3-Methylpyrrolidin-3-yl]-4-[3-[2-(cyclopropoxy)-3-pyridyl]pyrazolo[1,5-a]pyrimidin-5-yl]piperazine-1-carboxylate]	151 to 500	151 to 500	–	–
1 to 50	151 to 500	C#C[C@]1(OC(=O)N2CCN(c3ccn4ncc(-c5cccnc5OC5CC5)c4n3)CC2)CCNC1 [Compound I-15, [(3R)-3-Ethynylpyrrolidin-3-yl]-4-[3-[2-(cyclopropoxy)-3-pyridyl]pyrazolo[1,5-a]pyrimidin-5-yl]piperazine-1-carboxylate]	151 to 500	51 to 150	–	–
1 to 50	51 to 150	C#C[C@@]1(OC(=O)N2CCN(c3ccn4ncc(-c5cccnc5OC5CC5)c4n3)CC2)CCNC1 [Compound I-16, [(3S)-3-Ethynylpyrrolidin-3-yl]-4-[3-[2-(cyclopropoxy)-3-pyridyl]pyrazolo[1,5-a]pyrimidin-5-yl]piperazine-1-carboxylate]	1 to 50	1 to 50	–	–
> 1500	501 to 1500	O=C1C[C@H](OC(=O)N2CCN(c3ccn4ncc(-c5cccnc5NC5CCC5)c4n3)CC2)CN1 [Compound I-46, [(3S)-5-oxopyrrolidin-3-yl]4-[3-[2-(cyclobutylamino)-3-pyridyl]pyrazolo [1,5-a]pyrimidin-5-yl]piperazine-1-carboxylate]	–	> 1500	–	–
1 to 50	501 to 1500	[2H]C([2H])([2H])N1C[C@@H](OC(=O)N2CCN(c3nc4c(-c5cc(OC)cnc5OC5CC5)cnn4cc3F)CC2)CC1=O [Compound I-117, [(3S)-5-oxo-1-(trideuteriomethyl)pyrrolidin-3-yl]4-[3-[2-(cyclopropoxy)-5-methoxy-3-pyridyl]-6-fluoro-pyrazolo[1,5-a]pyrimidin-5-yl]piperazine-1-carboxylate]	1 to 50	–	–	–
51 to 150	–	CN1C[C@@H](OC(=O)N2CCN(c3nc4c(-c5cccnc5OC5CCOCC5)cnn4cc3F)CC2)CC1=O [Compound I-122, [(3S)-1-methyl-5-oxo-pyrrolidin-3-yl]4-[6-fluoro-3-(2-tetrahydropyran-4-yloxy-3-pyridyl)pyrazolo[1,5-a]pyrimidin-5-yl]piperazine-1-carboxylate]	151 to 500	501 to 1500	–	–
